Data: patent US20240218022A1, “ANTI-VISTA MACROCYCLIC PEPTIDES AND COMPOSITIONS” (BRISTOL-MYERS SQUIBB COMPANY, priority 2022, published 2024)
Starred links: 1 amine or outer side, 2 acyl side, 3 side chain; linkers in the order of their positions; H or OH if unused. Positions of bridges follow the written chain, without caps; N, C: chain ends. Non-standard residues stand in square brackets, D forms with d. Residues, ends and D or L forms follow the SMILES beside them. Phe(3-Me) = Cc1cccc(C[C@H](N)C(=O)O)c1; 2Nal = N[C@@H](Cc1ccc2ccccc2c1)C(=O)O; βAsp = O=C(O)[C@H](CC(=O)[*:2])N[*:1]; Cit = NC(=O)NCCC[C@H](N)C(=O)O; NMeL = CN[C@@H](CC(C)C)C(=O)O; Ahp(2) = CCCCC[C@H](N)C(=O)O; NMeNle = CCCC[C@H](NC)C(=O)O; Tle = CC(C)(C)[C@H](N)C(=O)O; NMeS = CN[C@@H](CO)C(=O)O; NHexGly = CCCCCCNCC(=O)O; Nle = CCCC[C@H](N)C(=O)O; Aun = NCCCCCCCCCCC(=O)O; AEEA = NCCOCCOCC(=O)O

Molecular target: T1, mouse VISTA (mVISTA) (Mus musculus, UniProt Q9D659)
T1 construct: expressed in transfected cells; host or cells: Human embryonic kidney 293T cells
T1 sequence (Q9D659 33-308): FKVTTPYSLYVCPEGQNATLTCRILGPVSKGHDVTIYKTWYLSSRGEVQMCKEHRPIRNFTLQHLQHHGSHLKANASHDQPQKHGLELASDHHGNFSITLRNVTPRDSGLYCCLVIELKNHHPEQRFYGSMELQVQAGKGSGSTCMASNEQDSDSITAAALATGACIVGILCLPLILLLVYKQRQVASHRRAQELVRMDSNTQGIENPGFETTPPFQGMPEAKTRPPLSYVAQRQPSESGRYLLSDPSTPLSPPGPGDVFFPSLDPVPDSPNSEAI
Assay: Cell-Based Binding High-Content Assay For mVISTA (HC CBA mVISTA)
Conditions: cell-based binding high-content assay, mVISTA; read-out: HC CBA miPr ISTA IC50
Procedure, shortened: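 Competition of compound with a biotinylated peptide (final 2 nM, 30 min at RT) for binding to mVISTA on 293T cells, run under no-wash or wash (1 h compound preincubation then removal) formats. Readout by Alexa 647–streptavidin imaging on a high-content platform; four-parameter logistic fit gave IC50.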

CCCCCCN1CC(=O)N[C@@H](Cc2ccc(O)cc2)C(=O)N[C@@H](CCCC)C(=O)NCC(=O)N[C@@H](CCCNC(N)=O)C(=O)N[C@@H](CC(C)C)C(=O)N[C@@H](CCCCC)C(=O)N2CCC[C@H]2C(=O)N[C@@H](C(C)C)C(=O)N[C@@H](CC(=O)O)C(=O)N[C@H](C(=O)NCC(=O)NCCOCCOCC(=O)N[C@@H](CC(=O)O)C(=O)NCCOCCOCC(=O)NCCCCCCCCCCC(=O)O)CSCC(=O)N[C@@H](Cc2cccc(C)c2)C(=O)N[C@@H](Cc2ccc(O)cc2)C(=O)N[C@@H](CC(=O)O)C1=O [compound 2019] ({CH2CO}-[Phe(3-Me)]YD[NHexGly]Y[Nle]G[Cit]L[Ahp(2)]PVDCG[AEEA]D[AEEA][Aun]-OH; thioether N-14)
IC50: 14.4 nM

CCCCCCN1CC(=O)N[C@@H](Cc2ccc(O)cc2)C(=O)N[C@@H](CCCC)C(=O)N[C@@H](CC(N)=O)C(=O)N[C@@H](CCCNC(=N)N)C(=O)N(C)[C@@H](CCCC)C(=O)N[C@@H](CCCCC)C(=O)N2CCC[C@H]2C(=O)N[C@@H](C(C)(C)C)C(=O)N[C@@H](CO)C(=O)N[C@H](C(=O)N[C@@H](CC(=O)NCCOCCOCC(=O)N[C@@H](CC(=O)O)C(=O)NCCOCCOCC(=O)NCCCCCCCCCCC(=O)O)C(=O)O)CSCC(=O)N[C@@H](Cc2ccccc2)C(=O)N[C@@H](Cc2ccc(O)cc2)C(=O)N[C@@H](CC(=O)O)C1=O [compound 2021] ({CH2CO}-FYD[NHexGly]Y[Nle]NR[NMeNle][Ahp(2)]P[Tle]SC[βAsp][AEEA]D[AEEA][Aun]-OH; thioether N-14)
IC50: 19.5 nM

CCCCCCN1CC(=O)N[C@@H](Cc2ccc(O)cc2)C(=O)N[C@@H](CCCC)C(=O)N[C@@H](CC(N)=O)C(=O)N[C@@H](CCCNC(=N)N)C(=O)N(C)[C@@H](CCCC)C(=O)N[C@@H](CCCCC)C(=O)N2CCC[C@H]2C(=O)N[C@@H](C(C)(C)C)C(=O)N[C@@H](CO)C(=O)N[C@H](C(=O)N[C@@H](CC(=O)NCCOCCOCC(=O)N[C@@H](CC(=O)O)C(=O)NCCOCCOCC(=O)NCCCCCCCCCCC(=O)O)C(=O)O)CSCC(=O)N[C@@H](Cc2ccccc2)C(=O)N[C@@H](Cc2c[nH]c3ccccc23)C(=O)N[C@@H](CC(=O)O)C1=O [compound 2022] ({CH2CO}-FWD[NHexGly]Y[Nle]NR[NMeNle][Ahp(2)]P[Tle]SC[βAsp][AEEA]D[AEEA][Aun]-OH; thioether N-14)
IC50: 22.7 nM

CCCCCCN1CC(=O)N[C@@H](Cc2ccc(O)cc2)C(=O)N[C@@H](CCCC)C(=O)N[C@@H](CC(N)=O)C(=O)N[C@@H](CCCNC(=N)N)C(=O)N(C)[C@@H](CCCC)C(=O)N[C@@H](CCCCC)C(=O)N2CCC[C@H]2C(=O)N[C@@H](C(C)(C)C)C(=O)N[C@@H](CO)C(=O)N[C@H](C(=O)N[C@@H](CC(=O)NCCOCCOCC(=O)N[C@@H](CC(=O)O)C(=O)NCCOCCOCC(=O)NCCCCCCCCCCC(=O)O)C(=O)O)CSCC(=O)N[C@@H](Cc2ccc3ccccc3c2)C(=O)N[C@@H](Cc2ccc(O)cc2)C(=O)N[C@@H](CC(=O)O)C1=O [compound 2023] ({CH2CO}-[2Nal]YD[NHexGly]Y[Nle]NR[NMeNle][Ahp(2)]P[Tle]SC[βAsp][AEEA]D[AEEA][Aun]-OH; thioether N-14)
IC50: 41.2 nM

CCCCCCN1CC(=O)N[C@@H](Cc2ccc(O)cc2)C(=O)N[C@@H](CCCC)C(=O)N[C@@H](CC(N)=O)C(=O)N[C@@H](CCCNC(=N)N)C(=O)N(C)[C@@H](CCCC)C(=O)N[C@@H](CCCCC)C(=O)N2CCC[C@H]2C(=O)N[C@@H](C(C)(C)C)C(=O)N[C@@H](CO)C(=O)N[C@H](C(=O)N[C@@H](CC(=O)NCCOCCOCC(=O)N[C@@H](CC(=O)O)C(=O)NCCOCCOCC(=O)NCCCCCCCCCCC(=O)O)C(=O)O)CSCC(=O)N[C@@H](Cc2cccc(C)c2)C(=O)N[C@@H](Cc2c[nH]c3ccccc23)C(=O)N[C@@H](CC(=O)O)C1=O [compound 2024] ({CH2CO}-[Phe(3-Me)]WD[NHexGly]Y[Nle]NR[NMeNle][Ahp(2)]P[Tle]SC[βAsp][AEEA]D[AEEA][Aun]-OH; thioether N-14)
IC50: 40.3 nM

CCCCCCN1CC(=O)N[C@@H](Cc2ccc(O)cc2)C(=O)N[C@@H](CC(C)C)C(=O)N[C@@H](CC(N)=O)C(=O)N[C@@H](CCCNC(=N)N)C(=O)N(C)[C@@H](CC(C)C)C(=O)N[C@@H](CCCCC)C(=O)N2CCC[C@H]2C(=O)N[C@@H](C(C)(C)C)C(=O)N[C@@H](CC(=O)O)C(=O)N[C@H](C(=O)N[C@@H](CC(=O)NCCOCCOCC(=O)N[C@@H](CC(=O)O)C(=O)NCCOCCOCC(=O)NCCCCCCCCCCC(=O)O)C(=O)O)CSCC(=O)N[C@@H](Cc2ccccc2)C(=O)N[C@@H](Cc2ccc(O)cc2)C(=O)N[C@@H](CC(=O)O)C1=O [compound 2026] ({CH2CO}-FYD[NHexGly]YLNR[NMeL][Ahp(2)]P[Tle]DC[βAsp][AEEA]D[AEEA][Aun]-OH; thioether N-14)
IC50: 17.5 nM

CCCCCCN1CC(=O)N[C@@H](Cc2ccc(O)cc2)C(=O)N[C@@H](CC(C)C)C(=O)N[C@@H](CC(N)=O)C(=O)N[C@@H](CCCNC(=N)N)C(=O)N(C)[C@@H](CCCC)C(=O)N[C@@H](CCCCC)C(=O)N2CCC[C@H]2C(=O)N[C@@H](C(C)(C)C)C(=O)N[C@@H](CC(=O)O)C(=O)N[C@H](C(=O)N[C@@H](CC(=O)NCCOCCOCC(=O)N[C@@H](CC(=O)O)C(=O)NCCOCCOCC(=O)NCCCCCCCCCCC(=O)O)C(=O)O)CSCC(=O)N[C@@H](Cc2ccccc2)C(=O)N[C@@H](Cc2c[nH]c3ccccc23)C(=O)N[C@@H](CC(=O)O)C1=O [compound 2027] ({CH2CO}-FWD[NHexGly]YLNR[NMeNle][Ahp(2)]P[Tle]DC[βAsp][AEEA]D[AEEA][Aun]-OH; thioether N-14)
IC50: 27.5 nM

CCCCCCN1CC(=O)N[C@@H](Cc2ccc(O)cc2)C(=O)N[C@@H](CC(C)C)C(=O)N[C@@H](CC(N)=O)C(=O)N[C@@H](CCCNC(=N)N)C(=O)N(C)[C@@H](CCCC)C(=O)N[C@@H](CCCCC)C(=O)N2CCC[C@H]2C(=O)N[C@@H](C(C)(C)C)C(=O)N[C@@H](CC(=O)O)C(=O)N[C@H](C(=O)N[C@@H](CC(=O)NCCOCCOCC(=O)N[C@@H](CC(=O)O)C(=O)NCCOCCOCC(=O)NCCCCCCCCCCC(=O)O)C(=O)O)CSCC(=O)N[C@@H](Cc2ccccc2)C(=O)N[C@@H](Cc2ccc(O)cc2)C(=O)N[C@@H](CC(=O)O)C1=O [compound 2029] ({CH2CO}-FYD[NHexGly]YLNR[NMeNle][Ahp(2)]P[Tle]DC[βAsp][AEEA]D[AEEA][Aun]-OH; thioether N-14)
IC50: 17.5 nM

CCCCCCN1CC(=O)N[C@@H](Cc2ccc(O)cc2)C(=O)N[C@@H](CC(C)C)C(=O)N[C@@H](CC(N)=O)C(=O)N[C@@H](CCCNC(=N)N)C(=O)N(C)[C@@H](CCCC)C(=O)N[C@@H](CCCCC)C(=O)N2CCC[C@H]2C(=O)N[C@@H](C(C)(C)C)C(=O)N[C@@H](CO)C(=O)N[C@H](C(=O)N[C@@H](CC(=O)NCCOCCOCC(=O)N[C@@H](CC(=O)O)C(=O)NCCOCCOCC(=O)NCCCCCCCCCCC(=O)O)C(=O)O)CSCC(=O)N[C@@H](Cc2ccccc2)C(=O)N[C@@H](Cc2ccc(O)cc2)C(=O)N[C@@H](CC(=O)O)C1=O [compound 2030] ({CH2CO}-FYD[NHexGly]YLNR[NMeNle][Ahp(2)]P[Tle]SC[βAsp][AEEA]D[AEEA][Aun]-OH; thioether N-14)
IC50: 22.8 nM

CCCCCCN1CC(=O)N[C@@H](Cc2ccc(O)cc2)C(=O)N[C@@H](CC(C)C)C(=O)N[C@@H](CC(N)=O)C(=O)N[C@@H](CCCNC(=N)N)C(=O)N(C)[C@@H](CC(C)C)C(=O)N[C@@H](CCCCC)C(=O)N2CCC[C@H]2C(=O)N[C@@H](C(C)(C)C)C(=O)N[C@@H](CO)C(=O)N[C@H](C(=O)N[C@@H](CC(=O)NCCOCCOCC(=O)N[C@@H](CC(=O)O)C(=O)NCCOCCOCC(=O)NCCCCCCCCCCC(=O)O)C(=O)O)CSCC(=O)N[C@@H](Cc2ccccc2)C(=O)N[C@@H](Cc2ccc(O)cc2)C(=O)N[C@@H](CC(=O)O)C1=O [compound 2031] ({CH2CO}-FYD[NHexGly]YLNR[NMeL][Ahp(2)]P[Tle]SC[βAsp][AEEA]D[AEEA][Aun]-OH; thioether N-14)
IC50: 14.5 nM

CCCCCCN1CC(=O)N[C@@H](Cc2ccc(O)cc2)C(=O)N[C@@H](CC(C)C)C(=O)N[C@@H](CC(N)=O)C(=O)N[C@@H](CCCNC(=N)N)C(=O)N(C)[C@@H](CC(C)C)C(=O)N[C@@H](CCCCC)C(=O)N2CCC[C@H]2C(=O)N[C@@H](C(C)(C)C)C(=O)N[C@@H](CC(=O)O)C(=O)N[C@H](C(=O)N[C@@H](CC(=O)NCCOCCOCC(=O)N[C@@H](CC(=O)O)C(=O)NCCOCCOCC(=O)NCCCCCCCCCCC(=O)O)C(=O)O)CSCC(=O)N[C@@H](Cc2ccccc2)C(=O)N[C@@H](Cc2c[nH]c3ccccc23)C(=O)N[C@@H](CC(=O)O)C1=O [compound 2032] ({CH2CO}-FWD[NHexGly]YLNR[NMeL][Ahp(2)]P[Tle]DC[βAsp][AEEA]D[AEEA][Aun]-OH; thioether N-14)
IC50: 28.1 nM

CCCCCCN1CC(=O)N[C@@H](Cc2ccc(O)cc2)C(=O)N[C@@H](CC(C)C)C(=O)N[C@@H](CC(N)=O)C(=O)N[C@@H](CCCNC(=N)N)C(=O)N(C)[C@@H](CO)C(=O)N[C@@H](CCCCC)C(=O)N2CCC[C@H]2C(=O)N[C@@H](C(C)(C)C)C(=O)N[C@@H](CO)C(=O)N[C@H](C(=O)N[C@@H](CC(=O)NCCOCCOCC(=O)N[C@@H](CC(=O)O)C(=O)NCCOCCOCC(=O)NCCCCCCCCCCC(=O)O)C(=O)O)CSCC(=O)N[C@@H](Cc2ccccc2)C(=O)N[C@@H](Cc2ccc(O)cc2)C(=O)N[C@@H](CC(=O)O)C1=O [compound 2033] ({CH2CO}-FYD[NHexGly]YLNR[NMeS][Ahp(2)]P[Tle]SC[βAsp][AEEA]D[AEEA][Aun]-OH; thioether N-14)
IC50: 18.4 nM
